According to patent US5298495A, “Partricin derivatives” (SPA Societa' Prodotti Antibiotici SpA, priority 1990, dated 1994):
In brackets after ≈: the same amount, converted by molar mass. Read-outs that look alike come from different tables or passages of the source.

How the values were obtained:
[1] = system: C. albicans 73; test: Microbiological activity on C. albicans (MIC); type: cell-based; conditions: Fluid Sab. Med, 36° C.; for MIC: Candida albicans, 73
Excerpt: (§1) MIC (ng/ml) Hemolytic con.(mcg/ml)
(§2) C. albicans 73 rat erytrocytes, […]

[2] = system: rat erytrocytes; test: Hemolytic activity on rat erythrocytes; type: cell-based
Excerpt: as §1, §2

[3] = Acute toxicity in mice (DL50); type: in vivo; conditions: mouse, in vivo
[4] = system: mice; test: Acute toxicity in mice (DL50); type: in vivo
[5] = 24 h, read-out: MIC C. albicans 73, 24 h
[6] = 48 h, read-out: MIC C. albicans 73, 48 h
[7] = rat erytrocytes, 4 h at 37° C., minimum
[8] = rat erytrocytes, 4 h at 37° C., total

Row | Compound | MIC [1, 5] | MIC [1, 6] | Hemolytic con. total (THC) [2] | Hemolytic con. min. (MHC) ([2]; rat, 240 min) | LD50 ([3]; ip, read-out: DL50 mice i.p.) | LD50 ([3]; iv, read-out: DL50 mice i.v.) | Hemolytic con. min. (MHC) [2, 7] | Hemolytic con. total (THC) [2, 8] | MIC C. albicans 73, 24 h ([1]; 24 h) | MIC C. albicans 73, 48 h ([1]; 48 h) | DL50 mice i.p. ([4]; i.p.) | DL50 mice i.v. ([4]; i.v.)
1 | CNc1ccc(C(=O)CC(O)CCC(C)C2OC(=O)CC(O)CC(=O)CC(O)CC(O)CC(O)CC(O)CC3(O)CC(O)C(C(=O)NCCCN(C)C)C(CC(OC4OC(C)C(O)C(NC(=O)CN(C)C)C4O)C=CC=CC=CC=CC=CC=CC=CC2C)O3)cc1 (stereo not drawn) | 0.015 µg/mL (≈ 0.0116 µM) | 0.03 µg/mL (≈ 0.0231 µM) | 10.4 µg/mL | 0.2 µg/mL | 12.4 mg/kg |  |  |  |  |  |  | 
2 | CNc1ccc(C(=O)CC(O)CCC(C)C2OC(=O)CC(O)CC(=O)CC(O)CC(O)CC(O)CC(O)CC3(O)CC(O)C(C(=O)NCCN(C)C)C(CC(OC4OC(C)C(O)C(NC(=O)CN(C)C)C4O)C=CC=CC=CC=CC=CC=CC=CC2C)O3)cc1 (stereo not drawn) [Partr. A, COCH2N(CH3)2, NHCH2 CH2N(CH3)2, N-dimethylaminoacetyl-partricin A 2-dimethylaminoethylamide] | 0.0075 µg/mL (≈ 0.00585 µM) | 0.015 µg/mL (≈ 0.0117 µM) | > 18 µg/mL | 18 µg/mL | 158 mg/kg | 58 mg/kg |  |  |  |  |  | 
3 | CNc1ccc(C(=O)CC(O)CCC(C)C2OC(=O)CC(O)CC(=O)CC(O)CC(O)CC(O)CC(O)CC3(O)CC(O)C(C(=O)N4CCN(CCO)CC4)C(CC(OC4OC(C)C(O)C(NC(=O)CN(C)C)C4O)C=CC=CC=CC=CC=CC=CC=CC2C)O3)cc1 (stereo not drawn) [Partr. A, COCH2N(CH3)2, drawing 30] | 0.0075 µg/mL (≈ 0.00566 µM) | 0.0212 µg/mL (≈ 0.016 µM) | 0.7 µg/mL | 0.2 µg/mL |  |  |  |  |  |  |  | 
4 | CNc1ccc(C(=O)CC(O)CCC(C)C2OC(=O)CC(O)CC(=O)CC(O)CC(O)CC(O)CC(O)CC3(O)CC(O)C(C(=O)N4CCN(C)CC4)C(CC(OC4OC(C)C(O)C(NC(=O)CN(C)C)C4O)C=CC=CC=CC=CC=CC=CC=CC2C)O3)cc1 (stereo not drawn) [Partr. A, COCH2N(CH3)2, drawing 31] | 0.0075 µg/mL (≈ 0.00579 µM) | 0.0212 µg/mL (≈ 0.0164 µM) |  |  | 3.6 mg/kg |  | 0.2 µg/mL | 2 µg/mL |  |  |  | 
5 | CNc1ccc(C(=O)CC(O)CCC(C)C2OC(=O)CC(O)CC(=O)CC(O)CC(O)CC(O)CC(O)CC3(O)CC(O)C(C(=O)NCCc4ccccn4)C(CC(OC4OC(C)C(O)C(NC(=O)CN(C)C)C4O)C=CC=CC=CC=CC=CC=CC=CC2C)O3)cc1 (stereo not drawn) [Partr. A, COCH2N(CH3)2, drawing 50] | 0.015 µg/mL (≈ 0.0114 µM) | 0.0424 µg/mL (≈ 0.0322 µM) | > 18 µg/mL | 18 µg/mL | > 300 mg/kg | 76.8 mg/kg |  |  |  |  |  | 
6 | CNc1ccc(C(=O)CC(O)CCC(C)C2OC(=O)CC(O)CC(=O)CC(O)CC(O)CC(O)CC(O)CC3(O)CC(O)C(C(=O)OC)C(CC(OC4OC(C)C(O)C(NC(=O)CCN5CCCCC5)C4O)C=CC=CC=CC=CC=CC=CC=CC2C)O3)cc1 (stereo not drawn) [Partr. A, drawing 32, OCH3] | 0.0075 µg/mL (≈ 0.00586 µM) | 0.0424 µg/mL (≈ 0.0331 µM) | 18 µg/mL | 3.5 µg/mL | > 30 mg/kg |  |  |  |  |  |  | 
7 | CNc1ccc(C(=O)CC(O)CCC(C)C2OC(=O)CC(O)CC(=O)CC(O)CC(O)CC(O)CC(O)CC3(O)CC(O)C(C(=O)NCCN(C)C)C(CC(OC4OC(C)C(O)C(NC(=O)CCN5CCCCC5)C4O)C=CC=CC=CC=CC=CC=CC=CC2C)O3)cc1 (stereo not drawn) [Partr. A, drawing 33, NHCH2 CH2N(CH3)2] | 0.0075 µg/mL (≈ 0.00561 µM) | 0.03 µg/mL (≈ 0.0224 µM) | 18 µg/mL | 6 µg/mL | 43.6 mg/kg |  |  |  |  |  |  | 
8 | CNc1ccc(C(=O)CC(O)CCC(C)C2OC(=O)CC(O)CC(=O)CC(O)CC(O)CC(O)CC(O)CC3(O)CC(O)C(C(=O)N4CCN(CCO)CC4)C(CC(OC4OC(C)C(O)C(NC(=O)CCN5CCCCC5)C4O)C=CC=CC=CC=CC=CC=CC=CC2C)O3)cc1 (stereo not drawn) [Partr. A, drawing 34, drawing 35] | 0.0075 µg/mL (≈ 0.00544 µM) | 0.03 µg/mL (≈ 0.0218 µM) | 2 µg/mL | 0.2 µg/mL |  |  |  |  |  |  |  | 
9 | CNc1ccc(C(=O)CC(O)CCC(C)C2OC(=O)CC(O)CC(=O)CC(O)CC(O)CC(O)CC(O)CC3(O)CC(O)C(C(=O)N4CCN(C)CC4)C(CC(OC4OC(C)C(O)C(NC(=O)CCN5CCCCC5)C4O)C=CC=CC=CC=CC=CC=CC=CC2C)O3)cc1 (stereo not drawn) [Partr. A, drawing 36, drawing 37] | 0.0075 µg/mL (≈ 0.00556 µM) | 0.015 µg/mL (≈ 0.0111 µM) | 3.5 µg/mL | 0.2 µg/mL |  |  |  |  |  |  |  | 
10 | CNc1ccc(C(=O)CC(O)CCC(C)C2OC(=O)CC(O)CC(=O)CC(O)CC(O)CC(O)CC(O)CC3(O)CC(O)C(C(=O)OC)C(CC(OC4OC(C)C(O)C(NC(=O)CN5CCN(C)CC5)C4O)C=CC=CC=CC=CC=CC=CC=CC2C)O3)cc1 (stereo not drawn) [Partr. A, drawing 38, OCH3] | 0.015 µg/mL (≈ 0.0117 µM) | 0.03 µg/mL (≈ 0.0234 µM) | 18 µg/mL | 0.7 µg/mL | 29.3 mg/kg |  |  |  |  |  |  | 
11 | CNc1ccc(C(=O)CC(O)CCC(C)C2OC(=O)CC(O)CC(=O)CC(O)CC(O)CC(O)CC(O)CC3(O)CC(O)C(C(=O)NCCN(C)C)C(CC(OC4OC(C)C(O)C(NC(=O)CN5CCN(C)CC5)C4O)C=CC=CC=CC=CC=CC=CC=CC2C)O3)cc1 (stereo not drawn) [Partr. A, drawing 39, NHCH2 CH2N(CH3)2] | 0.0106 µg/mL (≈ 0.00792 µM) | 0.03 µg/mL (≈ 0.0224 µM) | 18 µg/mL | 2 µg/mL | > 100 mg/kg |  |  |  |  |  |  | 
12 | CNc1ccc(C(=O)CC(O)CCC(C)C2OC(=O)CC(O)CC(=O)CC(O)CC(O)CC(O)CC(O)CC3(O)CC(O)C(C(=O)N4CCN(CCO)CC4)C(CC(OC4OC(C)C(O)C(NC(=O)CN5CCN(C)CC5)C4O)C=CC=CC=CC=CC=CC=CC=CC2C)O3)cc1 (stereo not drawn) [Partr. A, drawing 40, drawing 41] | 0.015 µg/mL (≈ 0.0109 µM) | 0.0212 µg/mL (≈ 0.0154 µM) | 2 µg/mL | 0.2 µg/mL |  |  |  |  |  |  |  | 
13 | CNc1ccc(C(=O)CC(O)CCC(C)C2OC(=O)CC(O)CC(=O)CC(O)CC(O)CC(O)CC(O)CC3(O)CC(O)C(C(=O)N4CCN(C)CC4)C(CC(OC4OC(C)C(O)C(NC(=O)CN5CCN(C)CC5)C4O)C=CC=CC=CC=CC=CC=CC=CC2C)O3)cc1 (stereo not drawn) [Partr. A, drawing 42, drawing 43] | 0.0075 µg/mL (≈ 0.00556 µM) | 0.0212 µg/mL (≈ 0.0157 µM) |  |  | 3.8 mg/kg |  | 0.2 µg/mL | 0.7 µg/mL |  |  |  | 
14 | CNc1ccc(C(=O)CC(O)CCC(C)C2OC(=O)CC(O)CC(=O)CC(O)CC(O)CC(O)CC(O)CC3(O)CC(O)C(C(=O)OC)C(CC(OC4OC(C)C(O)C(NC(=O)CN5CCN(CCO)CC5)C4O)C=CC=CC=CC=CC=CC=CC=CC2C)O3)cc1 (stereo not drawn) [Partr. A, drawing 44, OCH3] | 0.015 µg/mL (≈ 0.0114 µM) | 0.03 µg/mL (≈ 0.0229 µM) | 18 µg/mL | 0.7 µg/mL | > 30 mg/kg |  |  |  |  |  |  | 
15 | CNc1ccc(C(=O)CC(O)CCC(C)C2OC(=O)CC(O)CC(=O)CC(O)CC(O)CC(O)CC(O)CC3(O)CC(O)C(C(=O)NCCN(C)C)C(CC(OC4OC(C)C(O)C(NC(=O)CN5CCN(CCO)CC5)C4O)C=CC=CC=CC=CC=CC=CC=CC2C)O3)cc1 (stereo not drawn) [Partr. A, drawing 45, NHCH2 CH2N(CH3)2] | 0.0075 µg/mL (≈ 0.00548 µM) | 0.0212 µg/mL (≈ 0.0155 µM) | 18 µg/mL | 0.7 µg/mL | > 100 mg/kg |  |  |  |  |  |  | 
16 | CNc1ccc(C(=O)CC(O)CCC(C)C2OC(=O)CC(O)CC(=O)CC(O)CC(O)CC(O)CC(O)CC3(O)CC(O)C(C(=O)N4CCN(CCO)CC4)C(CC(OC4OC(C)C(O)C(NC(=O)CN5CCN(CCO)CC5)C4O)C=CC=CC=CC=CC=CC=CC=CC2C)O3)cc1 (stereo not drawn) [Partr. A, drawing 46, drawing 47] | 0.0106 µg/mL (≈ 0.00752 µM) | 0.0212 µg/mL (≈ 0.015 µM) | 0.7 µg/mL | 0.2 µg/mL |  |  |  |  |  |  |  | 
17 | CNc1ccc(C(=O)CC(O)CCC(C)C2OC(=O)CC(O)CC(=O)CC(O)CC(O)CC(O)CC(O)CC3(O)CC(O)C(C(=O)N4CCN(C)CC4)C(CC(OC4OC(C)C(O)C(NC(=O)CN5CCN(CCO)CC5)C4O)C=CC=CC=CC=CC=CC=CC=CC2C)O3)cc1 (stereo not drawn) [Partr. A, drawing 48, drawing 49] | 0.0075 µg/mL (≈ 0.00544 µM) | 0.015 µg/mL (≈ 0.0109 µM) | 0.7 µg/mL | 0.2 µg/mL |  |  |  |  |  |  |  | 
18 | CNc1ccc(C(=O)CC(O)CCC(C)C2OC(=O)CC(O)CC(=O)CC(O)CC(O)CC(O)CC(O)CC3(O)CC(O)C(C(=O)NCCc4ccccn4)C(CC(OC4OC(C)C(O)C(NC(=O)CCN5CCCCC5)C4O)C=CC=CC=CC=CC=CC=CC=CC2C)O3)cc1 (stereo not drawn) [Partr. A, drawing 51, drawing 52] | 0.03 µg/mL (≈ 0.0219 µM) | 0.06 µg/mL (≈ 0.0438 µM) | > 18 µg/mL | 6 µg/mL | > 300 mg/kg | 109 mg/kg |  |  |  |  |  | 
19 | mepartricin [Partr., H, OCH3, reference compound] |  |  |  |  |  |  | 0.7 µg/mL | 18 µg/mL | 0.0075 µg/mL | 0.03 µg/mL | 15.8 mg/kg | 5.02 mg/kg
